Tests used:
[1] = Brain exposure comparison of five radioligands; format: in vivo, human; conditions: in vivo
Description: Another complicating factor is low delivery to brain (i.e., low drug exposure), which may have cause low brain uptake. We compared five different radioligands from previous studies with regard to exposure to brain (Table 3) and measured the area under the curve of plasma concentration vs. time from 0 to 20 min. […] The effective exposure was thus named because only the free concentration of drug can cross the blood–brain barrier. ^11C-LY2428703 had the highest exposure value among the tracers tested. This high exposure was due to the slow wash-out of the tracer from the vascular compartment and to negligible metabolism in plasma, that is, parent radioligand represented 99% of plasma radioactivity even at the end of the 2-h scanning session.

[2] = room temperature, octanol; cited from earlier work
[3] = test system: ABCB1 (P-gp) and ABCG2 (BCRP); assay: Brain PET after blockade of efflux transporters, monkey; format: in vivo, rhesus monkeys (Macaca mulatta)
Description: Four male rhesus monkeys (Macaca mulatta, 11.7 ± 2.9 kg) were imaged in 13 PET scans. Seven scans were performed at baseline, three scans were performed after receptor blocking to calculate nondisplaceable uptake (VND), and three scans were performed after blockade of the efflux transporters at the blood–brain barrier. Receptors were blocked by mixing ^11C-LY2428703 with an mGluR1 antagonist - either nonradioactive LY2428703 (2.0 mg/kg) or LY2332084 (0.5 mg/kg) - in the same syringe. Efflux transporters were blocked in two scans by injecting DCPQ, which selectively blocks the efflux transporter ABCB1 (P-gp), and in one scan by injecting elacridar, which blocks both ABCB1 (P-gp) and ABCG2 (BCRP).
PET images were acquired using either the high-resolution research tomograph (HRRT) or the FOCUS 220 scanner (Siemens/CPS, Knoxville, TN, USA) for 120 min in 33 frames, with frame durations ranging from 30 s to 5 min, and correcting for attenuation and scatter. About 2 h before the PET scan, anesthesia was initiated with ketamine (10 mg/kg IM) and then maintained with 1% to 3% isoflurane. Electrocardiograph, body temperature, heart rate, and respiration rate were measured throughout the experiment. At baseline, the injected activity was 210 ± 51 MBq (specific activity at time of injection 43.2 ± 25.6 GBq/μmol, mass dose 6.9 ± 4.7 nmol or 0.62 ± 0.35 nmol/kg). Tissue time-activity curves were obtained from semi-automatic regions of interest encompassing the whole cerebellum and the rest of the brain. Brain uptake was expressed as standardized uptake value (SUV). Arterial input function was obtained for eight scans: four at baseline, two after blocking with nonradioactive LY2428703, one after blocking with DCPQ, and one after blocking with elacridar. Blood samples (0.5 mL each) were drawn through a port connected to the femoral artery at 15-s intervals until 2 min, followed by 1-mL samples at 3, 5, 10, 30, 60, 90, and 120 min. The plasma time-activity curve was corrected for the fraction of unchanged radioligand following the procedure detailed above.
Volumes of distribution (VT) were obtained by nonlinear compartmental analysis. Goodness-of-fit by nonlinear least squares analysis was evaluated using the Akaike Information Criterion (AIC) and Model Selection Criterion (MSC). The most appropriate model is that with the smallest AIC and the largest MSC score. Goodness-of-fit by the compartment models was compared with F statistics. A value of P < 0.05 was considered significant for F statistics. The identifiability of kinetic variables was calculated as standard error obtained from the diagonal of the covariance matrix and expressed as a percentage of the rate constant.

mGluR1 = molecular target: T1, mGluR1 (Macaca mulatta, UniProt I2CU04); assay: Saturation binding assay with [^3H]LY456066, monkey cerebellar membranes; set-up: species or system rhesus monkeys; conditions: monkeys
T1 construct: P2 membrane fractions were prepared from the cerebella of; from tissue; host or cells: rhesus monkey cerebellum, P2 membrane fraction
Description: P2 membrane fractions were prepared from the cerebella of male Sprague–Dawley rats (n = 3), male rhesus monkeys (n = 3), and female humans (n = 4). […] Nonspecific binding was defined by heterologous displacement of 1 μM LY480084 (mGlu1 antagonist) in select wells. Plates were incubated on ice for 75 min and membranes harvested on 0.3% polyethylenimine pretreated Wallac filter mats using a Tomtec Harvester MachII (Tomtec, Hamden, CT, USA). Dissociation constant (KD) and receptor density (Bmax) values were obtained in GraphPad Prism using standard nonlinear one-site binding equations. Data are presented as mean ± SEM (n = 3 to 4); one-way analysis of variance followed by Tukey's post hoc test.

T1 sequence (I2CU04 19-1195): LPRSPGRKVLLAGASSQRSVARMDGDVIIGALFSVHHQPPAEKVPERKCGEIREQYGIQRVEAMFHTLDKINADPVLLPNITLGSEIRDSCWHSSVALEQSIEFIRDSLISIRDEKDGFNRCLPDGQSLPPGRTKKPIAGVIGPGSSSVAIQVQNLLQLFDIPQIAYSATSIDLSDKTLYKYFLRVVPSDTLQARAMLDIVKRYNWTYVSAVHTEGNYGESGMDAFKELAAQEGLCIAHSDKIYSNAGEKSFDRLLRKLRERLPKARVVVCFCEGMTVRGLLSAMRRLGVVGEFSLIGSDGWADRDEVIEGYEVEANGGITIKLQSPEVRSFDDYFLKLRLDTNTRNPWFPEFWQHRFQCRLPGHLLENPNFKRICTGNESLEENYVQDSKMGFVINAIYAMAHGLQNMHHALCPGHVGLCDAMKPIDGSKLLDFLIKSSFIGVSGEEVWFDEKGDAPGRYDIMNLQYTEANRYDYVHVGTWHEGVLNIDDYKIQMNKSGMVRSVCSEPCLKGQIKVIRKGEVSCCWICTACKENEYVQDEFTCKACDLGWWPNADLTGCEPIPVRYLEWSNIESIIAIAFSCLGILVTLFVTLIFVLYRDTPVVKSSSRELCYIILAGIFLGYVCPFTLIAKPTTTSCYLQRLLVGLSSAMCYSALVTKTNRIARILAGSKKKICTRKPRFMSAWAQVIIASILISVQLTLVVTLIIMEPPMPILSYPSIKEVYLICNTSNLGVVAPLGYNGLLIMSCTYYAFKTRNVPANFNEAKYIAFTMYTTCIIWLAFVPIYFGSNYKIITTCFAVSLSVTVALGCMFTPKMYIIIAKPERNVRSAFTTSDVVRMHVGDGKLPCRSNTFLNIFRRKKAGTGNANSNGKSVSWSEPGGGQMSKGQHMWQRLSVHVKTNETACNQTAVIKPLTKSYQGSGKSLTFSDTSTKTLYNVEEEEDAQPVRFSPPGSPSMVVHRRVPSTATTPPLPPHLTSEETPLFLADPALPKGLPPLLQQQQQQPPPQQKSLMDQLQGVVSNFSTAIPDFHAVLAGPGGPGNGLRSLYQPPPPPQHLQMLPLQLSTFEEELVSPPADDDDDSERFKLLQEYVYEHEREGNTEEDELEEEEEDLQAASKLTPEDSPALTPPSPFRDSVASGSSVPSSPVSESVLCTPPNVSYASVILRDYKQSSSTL

Cc1c(-c2ccc(O[11CH3])cc2)nsc1NC(=O)[C@@H]1C[C@H]1C [^11C-LY2428703]
Brain peak SUV [1]: ~0.5 SUV | Effective exposure (E × fp) [1]: 0.19 | LogD [2]: 4.02 | VT in cerebellum ([3]; DCPQ experiment: baseline): 4.4 mL/cm^3 | VT in cerebellum ([3]; after DCPQ blockade (P-gp)): 4.2 mL/cm^3 | VT in cerebellum ([3]; after elacridar blockade (P-gp and BCRP)): 0.8 mL/cm^3 | substrate for P-gp or BCRP ([3]; based on pharmacological blockade): not a substrate | VT in cerebellum ([3]; elacridar experiment: baseline): 2.0 mL/cm^3 | fp × Bmax/KD (=VS), effective BP (mGluR1): 0.161

Source: publication PMC3683333, “^11C-LY2428703, a positron emission tomographic radioligand for the metabotropic glutamate receptor 1, is unsuitable for imaging in monkey and human brains” (EJNMMI Research, 2013)
